Read-outs that look alike come from different tables or passages of the source.
Legend:
human plasma kallikrein = human plasma kallikrein (Homo sapiens (Human), UniProt P03952); test: Kallikrein inhibition assay (FLINT) utilizing a quenched AMC peptide substrate; format: biochemical; conditions: 30 min preincubation, read-out: Kallikrein Kin Inh IC50
Protocol: Biological Example 2: Kallikrein Inhibition Assay Utilizing a Quenched AMC Peptide Substrate A fluorescence intensity (FLINT) based assay was used to monitor inhibition of human plasma kallikrein.
The Kallikrein FLINT assay was used with the following Z-Gly-Pro-Arg-AMC assay buffer: 50 mM Tris, pH 7.5, 100 mM NaCl, 5 mM CaCl2), 0.1 mg/mL BSA, 0.03% CHAPS. Assay buffer was prepared by mixing all ingredients fresh. 2×Z-Gly-Pro-Arg-AMC peptide substrate was prepared by diluting 10 mM stock into 1×assay buffer for a 100 μM working concentration (50 μM final concentration). The 2×kallikrein stock solution was prepared by diluting 14.76 μM stock in 1×assay buffer for a 4 nM working stock solution (2 nM final concentration).
Test compound(s) were run in an 11-point, 3-fold serial dilution with a final top compound concentration of 1 μM. Final DMSO in assay was 2%. Plasma kallikrein was pre-incubated for 30-minute with compound and then 50 μM substrate was added to initiate the reaction. The assay was run with kinetic (KIN) reads at 5 min intervals over 30 minutes. […] More specifically, the assay was run as follows: • 100 nL of 0.1 mM test compound was dispensed into black 384-well non-binding Greiner BioOne 784900 plate for 1 μM final concentration; • 5 μL of 1×assay buffer was dispensed to columns 24 (low control) and 5 μL 2×human kallikrein enzyme solution was dispensed to columns 1-23 (column 23 high control); • the plate was centrifuged with a “cover” plate at 500 rpm for 1 min • the plate was pre-incubated for 30 minutes at room temperature with plate covered; • 5 μL of 2×Z-Gly-Pro-Arg-AMC peptide substrate was dispensed into the entire plate, columns 1-24; • the plate was centrifuged with a “cover” plate at 500 rpm for 1 min; • the plate was read monitoring fluorescence intensity on the BMG PHERAStar at room temperature, using fluorescence module 340 nm/440 nm.
(§1) Percent inhibition (IC50) curves were generated per compound tested, and data was analyzed using a 4-parameter logistic fit using GeneData Screener. The relative fluorescence unit (RFU) values were normalized to percent inhibition using the following equation:
% inhibition=((HC-LC)−(compound-LC)\(HC-LC))*100 where LC—low control=mean signal of human kallikrein enzyme or 100% inhibition of human kallikrein enzyme; HC—high control=mean signal of Factor XIa+Z-Gly-Pro-Arg-AMC peptide substrate with DMSO only.
(§2) An 11-point dose response curve for the test compound(s) was generated using GENDATA to determine IC50 value based on the following equation:
Y=Bottom+(Top-Bottom)/(1+10^((logIC50−X)*HillSlope)) where Y is the % inhibition in the presence of X inhibitor concentration, Top=high control=mean signal of human kallikrein enzyme+Z-Gly-Pro-Arg-AMC peptide substrate with DMSO only; Bottom=low control−mean signal of no human kallikrein enzyme or 100% inhibition of human kallikrein enzyme; HillSlope—Hill coefficient; and IC50=concentration of compound with 50% inhibition in relation to top/high control.

Factor XIa = Factor XIa (Homo sapiens (Human), UniProt P03951); test: Factor XIa inhibition assay (FLINT) utilizing a fluorophore-quencher pair peptide substrate; format: biochemical; conditions: 30 min preincubation, kinetic reads over 30 min, read-out: FXIa Kin Inh IC50
From the text: Biological Example 1: Factor XIa Inhibition Assay Utilizing a Fluorophore-Quencher Pair Peptide Substrate
A fluorescence intensity (FLINT) based assay was used to monitor inhibition of Factor XIa. The peptide substrate, 5Fam-[…]-K5Tamra (purchased from New England Peptide) was chosen based on the FXI sequence. Conversion of zymogen […]. The custom peptide used in this assay was based on the Arg146 cleavage site of FXI. The peptide substrate was designed with a fluorophore-quencher pair, where the fluorescence is quenched until FXIa cleaves the 8-mer peptide after the Arg residue.
The Factor XIa FLINT assay was used with the following 5Fam-[…]-K5Tamra assay buffer: 50 mM Tris, pH 7.5, 100 mM NaCl, 5 mM CaCl2), 0.1 mg/mL BSA, 0.03% CHAPS. Assay buffer was prepared by mixing all ingredients fresh. 5Fam-[…]-K5Tamra peptide substrate was first prepared at 10 mM in 100% DMSO, then diluted to 3 mM in 100% DMSO. Assay buffer was then added directly to the 3 mM stock of substrate to prepare the 30 μM 2× working concentration (15 μM final concentration). The 2×Factor XIa stock solution was prepared by diluting 6.562 μM stock in 1×assay buffer for a 200 μM working stock solution (100 μM final concentration).
Test compound(s) were run in an 11-point, 3-fold serial dilution with a final top compound concentration of 100 nM. Final DMSO in assay was 2%. FXIa was preincubated with compound for 30-minutes and then substrate was added to initiate the reaction. The assay was run with kinetic (KIN) reads at 5 min intervals over 30 minutes. The time course was linear using 100 μM FXIa greater than 30 minutes. More specifically, the assay was run as follows: • 100 nL of 0.01 mM test compound was dispensed into black 384 well non-binding Greiner BioOne 784900 plate for 0.1 μM final concentration; • 5 μL of 1×assay buffer was dispensed to column 24 (low control) and 5 μL 2×Factor XIa solution was dispensed to columns 1-23 (column 23 high control); • the plate was centrifuged with a “cover” plate at 500 rpm for 1 min • the plate was pre-incubated for 30 minutes at room temperature with plate covered; • 5 μL of 2×5Fam-[…]-K5Tamra peptide substrate was dispensed into the entire plate, columns 1-24; • the plate was centrifuged with a “cover” plate at 500 rpm for 1 min; • the plate was read monitoring fluorescence intensity on the BMG PHERAStar at room temperature, using fluorescence module 485 nm/520 nm.
as §1
% inhibition=((HC-LC)−(compound−LC)/(HC-LC))*100
where LC—low control=mean signal of no Factor XIa or 100% inhibition of Factor XIa; HC—high control=mean signal of Factor XIa+5Fam-[…]-K5Tamra peptide substrate with DMSO only.
as §2
Y=Bottom+(Top-Bottom)/(1+10^((logIC50-X)*HillSlope))
where Y is the % inhibition in the presence of X inhibitor concentration, Top=high control=mean signal of Factor XIa+5Fam-[…] K5Tamra peptide substrate with DMSO only; Bottom=low control−mean signal of no Factor XIa or 100% inhibition of Factor XIa; HillSlope—Hill coefficient; and IC50=concentration of compound with 50% inhibition in relation to top/high control.
Representative compounds of the present invention were tested according to the procedure described in Biological Example 1 and Biological Example 2 above, with results as listed in Table 3, below.

[1] = 5Fam-KLTRAETV-K5Tamra substrate 15 μM
[2] = kinetic reads over 30 min, Z-Gly-Pro-Arg-AMC substrate 50 μM
[3] = 5Fam-[…]-K5Tamra substrate 15 μM

human plasma kallikrein, sequence (P03952 391-638): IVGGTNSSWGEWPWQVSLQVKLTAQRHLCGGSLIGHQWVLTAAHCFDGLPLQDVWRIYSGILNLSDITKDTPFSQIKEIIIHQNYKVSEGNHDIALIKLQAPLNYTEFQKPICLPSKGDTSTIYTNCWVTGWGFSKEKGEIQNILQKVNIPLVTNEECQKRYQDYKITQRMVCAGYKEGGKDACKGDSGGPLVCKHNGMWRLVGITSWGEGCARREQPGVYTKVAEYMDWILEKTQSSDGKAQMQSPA
human plasma kallikrein, sequence (P03952 20-390 partner): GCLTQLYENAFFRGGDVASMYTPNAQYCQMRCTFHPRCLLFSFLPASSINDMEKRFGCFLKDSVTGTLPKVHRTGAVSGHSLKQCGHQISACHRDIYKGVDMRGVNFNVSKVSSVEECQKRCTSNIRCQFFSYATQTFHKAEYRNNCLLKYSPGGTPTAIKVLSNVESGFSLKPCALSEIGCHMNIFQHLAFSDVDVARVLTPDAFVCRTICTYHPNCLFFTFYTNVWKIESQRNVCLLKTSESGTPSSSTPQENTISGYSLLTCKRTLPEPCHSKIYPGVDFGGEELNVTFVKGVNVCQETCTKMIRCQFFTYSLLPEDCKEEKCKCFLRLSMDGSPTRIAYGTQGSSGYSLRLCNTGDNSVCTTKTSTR
Factor XIa, sequence (P03951 388-625): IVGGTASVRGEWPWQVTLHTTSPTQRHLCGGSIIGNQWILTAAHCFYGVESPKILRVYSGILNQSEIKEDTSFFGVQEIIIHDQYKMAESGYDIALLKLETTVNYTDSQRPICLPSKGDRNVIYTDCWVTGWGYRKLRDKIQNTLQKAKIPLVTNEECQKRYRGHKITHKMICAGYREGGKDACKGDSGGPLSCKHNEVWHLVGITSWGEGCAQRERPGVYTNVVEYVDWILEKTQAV
Factor XIa, sequence (P03951 19-387 partner): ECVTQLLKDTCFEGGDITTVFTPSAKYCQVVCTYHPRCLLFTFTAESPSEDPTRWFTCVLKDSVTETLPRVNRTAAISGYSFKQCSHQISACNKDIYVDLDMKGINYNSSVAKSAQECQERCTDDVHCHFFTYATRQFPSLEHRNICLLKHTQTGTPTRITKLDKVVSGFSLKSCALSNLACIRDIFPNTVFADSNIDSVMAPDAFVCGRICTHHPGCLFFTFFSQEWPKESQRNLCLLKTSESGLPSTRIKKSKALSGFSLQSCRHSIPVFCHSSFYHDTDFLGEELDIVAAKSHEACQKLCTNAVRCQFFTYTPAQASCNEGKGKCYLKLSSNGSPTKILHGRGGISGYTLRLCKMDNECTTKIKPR

Row | SMILES | IC50 (human plasma kallikrein; μM, kinetic reads) | IC50 (Factor XIa; [1]) | IC50 (human plasma kallikrein; [2]) | IC50 (Factor XIa; [3])
1 | COc1ccc(-c2c[nH]c([C@@H]3CCC4CC(c5c(-n6cnnn6)ccc(Cl)c5F)=CC(=O)N43)n2)c(NC(=O)C2CC2)c1 (stereo partly drawn) [Example 276, N-(2-(2-((3S)-7-(3-Chloro-2-fluoro-6-(1H-tetrazol-1-yl)phenyl)-5-oxo-1,2,3,5,8,8a-hexahydroindolizin-3-yl)-1H-imidazol-4-yl)-5-methoxyphenyl)cyclopropanecarboxamide] | – | 0.6 nM | 0.0012 µM | –
2 | O=C(Nc1ccncc1-c1c[nH]c([C@@H]2CCC3CC(c4c(-n5cnnn5)ccc(Cl)c4F)=CC(=O)N32)n1)C1CC1 (stereo partly drawn) [Example 252, N-[3-[2-[(3S)-7-[3-Chloro-2-fluoro-6-(tetrazol-1-yl)phenyl]-5-oxo-2,3,8,8a-tetrahydro-1H-indolizin-3-yl]-1H-imidazol-4-yl]-4-pyridyl]cyclopropanecarboxamide] | – | 0.6 nM | 0.0045 µM | –
3 | COc1ccc(NC(=O)C2CC2)c(-c2c[nH]c([C@@H]3CC[C@H]4CC(c5c(-n6cnnn6)ccc(Cl)c5F)=CC(=O)N43)n2)c1 [Example 271, N-(2-(2-((3S,8aS)-7-(3-Chloro-2-fluoro-6-(1H-tetrazol-1-yl)phenyl)-5-oxo-1,2,3,5,8,8a-hexahydroindolizin-3-yl)-1H-imidazol-4-yl)-4-methoxyphenyl)cyclopropanecarboxamide] | – | 0.8 nM | – | –
4 | COc1ccc(NC(=O)C2CC2)c(-c2c[nH]c([C@@H]3CCC4CC(c5c(-n6cnnn6)ccc(Cl)c5F)=CC(=O)N43)n2)c1 (stereo partly drawn) [Example 279, N-(2-(2-((3S)-7-(3-Chloro-2-fluoro-6-(1H-tetrazol-1-yl)phenyl)-5-oxo-1,2,3,5,8,8a-hexahydroindolizin-3-yl)-1H-imidazol-4-yl)-4-methoxyphenyl)cyclopropanecarboxamide] | – | 0.9 nM | – | –
5 | COc1ccc(NC(=O)C2CC2)c(-c2c[nH]c([C@@H]3CC[C@@H]4CC(c5c(-n6cnnn6)ccc(Cl)c5F)=CC(=O)N43)n2)c1 [Example 257, N-[2-[2-[(3S,8aR)-7-[3-Chloro-2-fluoro-6-(tetrazol-1-yl)phenyl]-5-oxo-2,3,8,8a-tetrahydro-1H-indolizin-3-yl]-1H-imidazol-4-yl]-4-methoxy-phenyl]cyclopropanecarboxamide] | – | 0.5 nM | – | –

Continued, values first:

Row | IC50 (human plasma kallikrein; μM, kinetic reads) | IC50 (Factor XIa; [1]) | IC50 (human plasma kallikrein; [2]) | IC50 (Factor XIa; [3]) | SMILES
6 | 2.4 µM | 347 nM | – | – | O=C1C=C(c2c(-n3cnnn3)ccc(Cl)c2F)CC2CC[C@@H](c3nc(-c4nc[nH]n4)c[nH]3)N12 (stereo partly drawn) [Example 331, (3S)-3-(4-(1H-1,2,4-Triazol-3-yl)-1H-imidazol-2-yl)-7-(3-chloro-2-fluoro-6-(1H-tetrazol-1-yl)phenyl)-2,3,8,8a-tetrahydroindolizin-5(1H)-one]
7 | – | 10.3 nM | 0.0031 µM | – | O=C1C=C(c2c(-n3cnnn3)ccc(Cl)c2F)C[C@H]2CC[C@@H](c3ncc(-c4ccnc(-n5cccn5)c4)[nH]3)N12 [Example 93, (3S,8aR)-3-(5-(2-(1H-pyrazol-1-yl)pyridin-4-yl)-1H-imidazol-2-yl)-7-(3-chloro-2-fluoro-6-(1H-tetrazol-1-yl)phenyl)-2,3,8,8a-tetrahydroindolizin-5(1H)-one]
8 | – | – | 0.0008 µM | 0.2 nM | NC(=O)c1ccc(-c2nc([C@@H]3CC[C@@H]4CC(c5c(-n6cnnn6)ccc(Cl)c5F)=CC(=O)N43)[nH]c2Cl)s1 [Example 211, 5-(5-Chloro-2-((3S,8aR)-7-(3-chloro-2-fluoro-6-(1H-tetrazol-1-yl)phenyl)-5-oxo-1,2,3,5,8,8a-hexahydroindolizin-3-yl)-1H-imidazol-4-yl)thiophene-2-carboxamide]
9 | – | 6.2 nM | 0.0107 µM | – | C[C@H](Oc1nccc(-c2cnc([C@@H]3CC[C@@H]4CC(c5c(-n6cnnn6)ccc(Cl)c5F)=CC(=O)N43)[nH]2)c1F)c1ncco1 (single isomer, unassigned) [Example 142, (3*S,8a*R)-7-(3-chloro-2-fluoro-6-(1H-tetrazol-1-yl)phenyl)-3-(5-(3-fluoro-2-((*S)-1-(oxazol-2-yl)ethoxy)pyridin-4-yl)-1H-imidazol-2-yl)-2,3,8,8a-tetrahydroindolizin-5(1H)-one]
10 | – | – | 0.136 µM | 40.9 nM | O=C1C=C(c2c(-n3cnnn3)ccc(Cl)c2F)C[C@H]2CC[C@H](c3ncc(-c4ccnc(-n5cnnc5)c4F)[nH]3)N12 (relative stereo) [Example 78, (3R*,8aR)-7-(3-chloro-2-fluoro-6-(1H-tetrazol-1-yl)phenyl)-3-(5-(3-fluoro-2-(4H-1,2,4-triazol-4-yl)pyridin-4-yl)-1H-imidazol-2-yl)-2,3,8,8a-tetrahydroindolizin-5(1H)-one]
11 | 7.3 µM | 211 nM | – | – | Cn1ccnc1-c1c[nH]c([C@@H]2CCC3CC(c4c(-n5cnnn5)ccc(Cl)c4F)=CC(=O)N32)n1 (stereo partly drawn) [Example 334, (3S)-7-(3-chloro-2-Fluoro-6-(1H-tetrazol-1-yl)phenyl)-3-(1-methyl-1H,1′H-[2,4′-biimidazol]-2′-yl)-2,3,8,8a-tetrahydroindolizin-5(1H)-one]
12 | – | 0.3 nM | 0.0007 µM | – | O=C1C=C(c2c(-n3cnnn3)ccc(Cl)c2F)C[C@@H]2CC[C@@H](c3ncc(-c4ccc5[nH]c(=O)[nH]c5c4)[nH]3)N12 [Example 292, 5-(2-((3S,8aS)-7-(3-Chloro-2-fluoro-6-(1H-tetrazol-1-yl)phenyl)-5-oxo-1,2,3,5,8,8a-hexahydroindolizin-3-yl)-1H-imidazol-5-yl)-1,3-dihydro-2H-benzo[d]imidazol-2-one]

— patent publication US20230295157A1, “3-(1H-IMIDAZOL-2-YL)-2,3,8,8A-TETRAHYDROINDOLIZIN-5(1H)-ONE DERIVATIVES USEFUL AS FACTOR XIA INHIBITORS” (JANSSEN PHARMACEUTICA NV, priority 2020, published 2023)
